Data set [1] in a line: Metabolic stability in mouse liver microsomes. Format: in vitro ADME. The settings on record: CD-1, mouse, pH 7.4, 1 μM compound, 0.5 mg/mL microsome, NADPH 1 mM, 37° C., read-out: Mouse liver microsome stability t1/2. The source says:
• 1. Human liver microsome (Corning 452117), beagle dog liver microsome (XENOTECH D1000), SD rat liver microsome (XENOTECH R1000), and CD-1 mouse liver microsome (XENOTECH M1000) • 2. Na2HPO4 (Tianjin Guangfu Fine Chemical Research Institute 20180130) • 3. KH2PO4 (Tianjin Guangfu Fine Chemical Research Institute 20180920) • 4. MgCl2 (Tianjin Guangfu Fine Chemical Research Institute 20191216) • 5. NADPH (Solarbio 1216C022) • 6. Positive control compound verapamil (Sigma MKBV4993V) • 7. AB Sciex API4000 liquid chromatography-mass spectrometry system
• 1. Preparation of 100 mM phosphate-buffered saline (PBS): 7.098 g Na2HPO4 was weighed. 500 mL pure water was added. The mixture was dissolved by sonication to give solution A. 3.400 g KH2PO4 was weighed. 250 mL pure water was added. […]
All data were calculated by Microsoft Excel software. The peak area was detected through an extracted ion chromatogram. The in vitro half-life (t1/2) of the compound was determined by linear fitting of the natural logarithm of compound elimination percentage over time.
In vitro half-life (t1/2) was calculated by the slope k: […]
The in vitro intrinsic clearance (in μL/min/mg protein) was calculated using the following formula: […]
In general terms: Liver microsomes are vesicles of endoplasmic reticulum, rich in cytochrome P450 enzymes.

In a further data set the target is hERG potassium channel (Homo sapiens (Human), UniProt Q12809). Put plainly: hERG inhibitory activity, manual patch clamp. Format: cell-based. As to conditions: HEK293 cells stably expressing hERG. As for the experimental part: The inhibition of hERG activity by the compound of the present invention was determined using the following method.
HEK293 cells (Cat. No: K1236) stably expressing hERG ion channel were purchased from Invitrogen. The cells were cultured in a culture medium containing 85% DMEM, 10% dialyzed fetal bovine serum, 0.1 mM non-essential amino acid solution, 100 U/mL penicillin-streptomycin solution, 25 mM HEPES, 5 μg/mL blasticidin, and 400 μg/mL geneticin. When the cell density increased to 40-80% of the bottom area of the culture dish, the cells were digested with trypsin and subcultured thrice every week. Before the experiment, the cells were cultured at a density of 5×10^5 in 6-cm culture dishes, induced for 48 h with 1 μg/mL doxycycline, and then digested and inoculated on a slide for the subsequent manual patch-clamp experiment. […]
• 1) The slides carrying HEK293 cells in the culture dish were placed in the perfusion chamber of the micromanipulation stage. • 2) Appropriate cells were placed in the center of the field of view under an Olympus IX51, IX71, or IX73 inverted microscope. […] The peak value of the tail current was the magnitude of the hERG current. • 9) The hERG current used to detect the test compound was recorded continuously for 120 seconds prior to dosing to assess the stability of hERG current production by the test cells. […]

As usually defined, the IC50 is the concentration that inhibits the measured activity by half. A high value points to weaker potency in that assay.

Chain of hERG potassium channel (Q12809 whole entry): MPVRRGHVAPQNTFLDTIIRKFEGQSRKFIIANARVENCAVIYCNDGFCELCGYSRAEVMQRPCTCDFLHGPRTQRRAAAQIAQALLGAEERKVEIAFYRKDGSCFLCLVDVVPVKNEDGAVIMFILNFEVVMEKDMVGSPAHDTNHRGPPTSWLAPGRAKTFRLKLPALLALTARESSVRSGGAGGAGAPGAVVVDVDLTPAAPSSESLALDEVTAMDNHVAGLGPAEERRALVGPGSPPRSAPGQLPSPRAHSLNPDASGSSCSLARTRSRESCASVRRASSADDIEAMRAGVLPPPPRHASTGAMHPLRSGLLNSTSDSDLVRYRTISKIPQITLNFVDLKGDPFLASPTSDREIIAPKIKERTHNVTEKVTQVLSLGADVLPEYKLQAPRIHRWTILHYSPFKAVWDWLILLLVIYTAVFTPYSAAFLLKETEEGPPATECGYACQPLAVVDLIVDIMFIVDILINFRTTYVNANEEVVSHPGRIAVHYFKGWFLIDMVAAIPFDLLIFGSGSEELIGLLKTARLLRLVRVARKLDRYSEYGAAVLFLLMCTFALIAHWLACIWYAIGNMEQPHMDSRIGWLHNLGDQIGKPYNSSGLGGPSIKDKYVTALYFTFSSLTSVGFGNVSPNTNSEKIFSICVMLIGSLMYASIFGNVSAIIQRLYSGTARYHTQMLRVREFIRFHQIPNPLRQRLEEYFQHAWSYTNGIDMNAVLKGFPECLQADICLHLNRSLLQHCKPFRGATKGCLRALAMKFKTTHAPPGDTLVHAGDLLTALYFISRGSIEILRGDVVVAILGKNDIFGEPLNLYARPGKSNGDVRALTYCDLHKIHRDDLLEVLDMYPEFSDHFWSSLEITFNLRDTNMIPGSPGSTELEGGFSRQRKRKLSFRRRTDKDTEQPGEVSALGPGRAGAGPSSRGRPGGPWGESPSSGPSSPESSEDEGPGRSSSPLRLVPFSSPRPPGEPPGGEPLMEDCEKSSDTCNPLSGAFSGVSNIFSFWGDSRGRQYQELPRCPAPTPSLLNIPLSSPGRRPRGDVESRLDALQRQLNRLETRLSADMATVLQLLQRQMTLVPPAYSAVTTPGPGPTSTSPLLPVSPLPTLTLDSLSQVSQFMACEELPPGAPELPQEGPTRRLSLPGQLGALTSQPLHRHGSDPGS

In the case of `C[C@]12C=CC(=O)C=C1CC[C@@H]1[C@@H]2[C@@H](O)C[C@@]2(C)[C@H]1C[C@H]1O[C@@H](c3ccc(Cc4cc(N)c5c(c4)CCO5)cc3)O[C@]12C(=O)CO` [Compound 009, (6aR,6bS,7S,8aS,8bS,10R,11aR,12aS,12bS)-10-(4-((7-amino-2,3-dihydrobenzofuran-5-yl)methyl)phenyl)-7-hydroxy-8b-(2-hydroxyacetyl)-6a,8a-dimethyl-6a,6b,7,8,8a,8b,11a,12,12a,12b-decahydro-1H-naphtho[2′,1′:4,5]indeno[1,2-d][1,3]dioxolan-4(2H)-one], in data set [1], the half-life at 1 μM was 17.3 min. The same molecule gave an IC50 against hERG potassium channel of more than 30 µM.

The record behind these values is patent US20240307415A1, “STEROID COMPOUND, AND PHARMACEUTICAL COMPOSITION THEREOF AND USE THEREOF” (JIANGSU SIMCERE PHARMACEUTICAL CO., LTD., priority 2021, published 2024).
